4 molecules from US11273152B2, “TRPV2 antagonists” (Instituto de Medicina Molecular João Lobo Antunes, priority 2017, dated 2022) can be followed below.

Test [1] addresses T1, TRPV2 (Homo sapiens, UniProt Q9Y5S1).
T1 sequence (Q9Y5S1 1-764): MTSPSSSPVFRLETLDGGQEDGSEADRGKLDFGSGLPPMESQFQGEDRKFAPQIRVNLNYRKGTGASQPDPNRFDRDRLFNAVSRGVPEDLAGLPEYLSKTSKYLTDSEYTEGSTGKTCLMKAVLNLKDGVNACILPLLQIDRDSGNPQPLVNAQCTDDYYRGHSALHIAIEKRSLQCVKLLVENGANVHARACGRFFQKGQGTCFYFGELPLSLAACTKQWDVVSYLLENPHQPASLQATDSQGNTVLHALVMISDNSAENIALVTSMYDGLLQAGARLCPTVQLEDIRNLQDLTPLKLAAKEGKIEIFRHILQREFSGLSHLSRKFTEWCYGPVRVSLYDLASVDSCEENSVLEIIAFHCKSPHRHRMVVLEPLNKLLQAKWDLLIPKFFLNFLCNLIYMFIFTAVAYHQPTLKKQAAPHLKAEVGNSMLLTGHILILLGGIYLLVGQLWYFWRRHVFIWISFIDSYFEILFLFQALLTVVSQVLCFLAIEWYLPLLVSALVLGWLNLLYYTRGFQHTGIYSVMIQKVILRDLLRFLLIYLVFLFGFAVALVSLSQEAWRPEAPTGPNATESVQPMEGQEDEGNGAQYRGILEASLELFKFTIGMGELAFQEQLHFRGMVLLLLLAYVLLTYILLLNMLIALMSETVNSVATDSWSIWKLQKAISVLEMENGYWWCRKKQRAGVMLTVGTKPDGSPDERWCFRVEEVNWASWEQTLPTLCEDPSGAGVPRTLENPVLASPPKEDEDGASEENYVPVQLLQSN
Nature of the test: Manual patch-clamp assay, hTRPV2 stable HEK-293 cells. The settings on record: n=3. Type of test: cell-based. The procedure: The assays were performed at SB Discovery (Glasgow, UK) on a fee-for-service basis. Concentration-response curves and washout assays were performed using a manual patch clamp method. HEK-293 cells were grown and prepared, according to the adapted procedure for hTRPV2 stable cell lines at SB Discovery. Cells were serum starved for approximately 24 hours and then changed to serum-containing media prior to electrophysiology testing. The manual patch-clamp assay was carried out at room temperature using a traditional electrophysiological unit. Cells were used within 2-3 hours after addition of serum containing media to the cells. The standard extracellular solution contained 145 mM NaCl, 4 mM KCl, 2 mM CaCl2, 1 mM MgCl2, 10 mM HEPES and 10 mM glucose. The pH was adjusted to 7.4 with NaOH, and the osmolarity was measured as 311 mOsm/L. The standard intracellular solution contained 50 mM KCl, 10 mM NaCl, 60 mM KF, 2 mM MgCl2, 20 mM EGTA and 10 mM HEPES. The pH was adjusted to 7.2 with KOH and the osmolarity was measured as 286 mOsm/L. A standard ramp protocol was used to monitor currents upon addition of control (extracellular solution) and compound solutions. The voltage protocol consisted of a series of voltage ramps from −100 mV to +100 mV, every 5 seconds, from a holding potential of −60 mV. The maximum outward current values during the recordings at +100 mV were used for analysis. Manual patch clamp experiments were carried out using an Axon 200B amplifier and a Digidata 1440A acquisition system from Axon Instruments (Molecular Devices, USA). The software program pClamp (version 10) from Axon Instruments was used to stimulate and record electrical activity. Capacitative transients were compensated electronically from the recordings, however the voltage drop across the series resistance and the liquid junction potential were not compensated. The series resistance was generally less than 10 MΩ, with a mean cell capacity of approximately 25 pF. The GraphPad Prism (version 5) software was used to analyze and plot all graphs. The agonist (cannabidiol; Abcam #ab120448) was prepared as 100 mM stock in 100% DMSO and diluted to 4 μM or 10 μM in physiological solution prior to testing. Piperlongumine was prepared as 100 mM stock in 100% DMSO and diluted to the specified concentrations in physiological solution (100, 50, 10, 1 and 0.1 μM), also containing 4 μM or 10 μM cannabidiol. Ruthenium red (Sigma, #R2751) was prepared daily as 10 mM stock ion distilled water and diluted to 100 μM in physiological solution.

The next test concerns the target TRPA1 (Homo sapiens, UniProt O75762). In words: Fluorescence cell-based assay, TRPA1. The settings on record: calcium 5 dye, spread in log units, duplicate. The procedure: (§1) The assays were performed at SB Discovery (Glasgow, UK) on a fee-for-service basis. Human TRP cells were trypsinised, counted and seeded in black, clear-bottomed 96 well plates at a density of 50,000 cells per well in 100 μL volume and incubated overnight. Next day, the cells were loaded with calcium 5 dye or membrane potential dye. TRPV1-5, TRPA1, TRPM2, TRPM3, and TRPM8 were tested using the calcium 5 dye. TRPC1, TRPC3-7, and TRPM4-5 were tested using the membrane potential dye. Both dye solutions were made up in HEPES buffered Hank's balanced salt solution (HBSS). Dye solution (90 μL) was added to the wells and incubated at 37° C. for 1 hour. Test compounds and standard inhibitors (10 μL) were then added to the wells and incubated at room temperature for 10 minutes. The plates were then placed in the flexstation and fluorescence monitored every 1.52 seconds. After 20 seconds agonist was added and the fluorescence monitored for 2 minutes at 485 nm/525 nm and 530 nm/565 nm, Ex/Em, for the calcium 5 dye and the membrane potential dye respectively. Controls-TRPV1: capsazepine; TRPV2: tranilast; TRPV3: ruthenium red; TRPV4: ruthenium red; TRPV5: Gd^3+; TRPA1, ruthenium red; TRPC1: Gd^3+; TRPC3: Pyr3; TRPC4: ML 204; TRPC5: ML 204; TRPC6: ML 204; TRPC7: SKF 96365; TRPM2: 2-APB; TRPM3: Mef acid; TRPM4: clotrimazole; TRPM5: TPPO; TRPM8: 2-APB. […]

The target in test [2] is T1, TRPV2. In words: Fluorescence cell-based assay, TRPV2 (cannabidiol-evoked calcium influx). The note with it: spread in log units; n=2; read-out: IC50 against TRPV2, fluorescence-based assay (FIG. 2a). As to the method:
The assays were performed at SB Discovery (Glasgow, UK) on a fee-for-service basis. Human TRP cells were trypsinised, counted and seeded in black, clear-bottomed 96 well plates at a density of 50,000 cells per well in 100 μL volume and incubated overnight. Next day, the cells were loaded with calcium 5 dye or membrane potential dye. TRPV1-5, TRPA1, TRPM2, TRPM3, and TRPM8 were tested using the calcium 5 dye. TRPC1, TRPC3-7, and TRPM4-5 were tested using the membrane potential dye. Both dye solutions were made up in HEPES buffered Hank's balanced salt solution (HBSS). Dye solution (90 μL) was added to the wells and incubated at 37° C. for 1 hour. Test compounds and standard inhibitors (10 μL) were then added to the wells and incubated at room temperature for 10 minutes. The plates were then placed in the flexstation and fluorescence monitored every 1.52 seconds. After 20 seconds agonist was added and the fluorescence monitored for 2 minutes at 485 nm/525 nm and 530 nm/565 nm, Ex/Em, for the calcium 5 dye and the membrane potential dye respectively. Controls-TRPV1: capsazepine; TRPV2: tranilast; TRPV3: ruthenium red; TRPV4: ruthenium red; TRPV5: Gd^3+; TRPA1, ruthenium red; TRPC1: Gd^3+; TRPC3: Pyr3; TRPC4: ML 204; TRPC5: ML 204; TRPC6: ML 204; TRPC7: SKF 96365; TRPM2: 2-APB; TRPM3: Mef acid; TRPM4: clotrimazole; TRPM5: TPPO; TRPM8: 2-APB. Control data was in all cases within historical range.

In another test the target is TRPC7 (Homo sapiens, UniProt Q9HCX4). Nature of the test: Fluorescence cell-based assay, TRPC7. The note with it: membrane potential dye, spread in log units, duplicate. The procedure:
as §1

TRPC7, sequence (Q9HCX4 whole entry): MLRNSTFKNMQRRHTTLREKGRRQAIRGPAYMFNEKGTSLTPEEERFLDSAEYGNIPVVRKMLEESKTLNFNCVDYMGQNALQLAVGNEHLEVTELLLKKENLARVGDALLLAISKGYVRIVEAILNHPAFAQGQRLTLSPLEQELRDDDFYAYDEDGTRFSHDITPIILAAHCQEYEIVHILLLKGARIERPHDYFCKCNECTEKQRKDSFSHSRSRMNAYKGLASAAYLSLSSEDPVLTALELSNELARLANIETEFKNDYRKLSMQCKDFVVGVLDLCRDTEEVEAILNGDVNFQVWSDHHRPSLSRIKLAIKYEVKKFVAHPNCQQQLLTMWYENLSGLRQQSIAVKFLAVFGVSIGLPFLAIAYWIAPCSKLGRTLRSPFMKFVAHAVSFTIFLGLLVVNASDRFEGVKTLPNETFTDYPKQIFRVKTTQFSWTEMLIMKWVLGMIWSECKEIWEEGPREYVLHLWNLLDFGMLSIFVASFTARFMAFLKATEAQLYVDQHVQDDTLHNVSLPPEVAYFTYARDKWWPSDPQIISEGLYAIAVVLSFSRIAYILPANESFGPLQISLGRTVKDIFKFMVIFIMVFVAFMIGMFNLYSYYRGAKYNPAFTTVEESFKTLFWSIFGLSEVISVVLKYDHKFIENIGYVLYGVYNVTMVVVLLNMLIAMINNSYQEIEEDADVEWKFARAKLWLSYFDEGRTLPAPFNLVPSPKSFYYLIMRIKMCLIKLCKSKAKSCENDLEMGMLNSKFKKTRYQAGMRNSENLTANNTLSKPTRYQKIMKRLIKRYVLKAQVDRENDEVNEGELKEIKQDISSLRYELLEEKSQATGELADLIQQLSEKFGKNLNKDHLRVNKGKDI
TRPA1, sequence (O75762 whole entry): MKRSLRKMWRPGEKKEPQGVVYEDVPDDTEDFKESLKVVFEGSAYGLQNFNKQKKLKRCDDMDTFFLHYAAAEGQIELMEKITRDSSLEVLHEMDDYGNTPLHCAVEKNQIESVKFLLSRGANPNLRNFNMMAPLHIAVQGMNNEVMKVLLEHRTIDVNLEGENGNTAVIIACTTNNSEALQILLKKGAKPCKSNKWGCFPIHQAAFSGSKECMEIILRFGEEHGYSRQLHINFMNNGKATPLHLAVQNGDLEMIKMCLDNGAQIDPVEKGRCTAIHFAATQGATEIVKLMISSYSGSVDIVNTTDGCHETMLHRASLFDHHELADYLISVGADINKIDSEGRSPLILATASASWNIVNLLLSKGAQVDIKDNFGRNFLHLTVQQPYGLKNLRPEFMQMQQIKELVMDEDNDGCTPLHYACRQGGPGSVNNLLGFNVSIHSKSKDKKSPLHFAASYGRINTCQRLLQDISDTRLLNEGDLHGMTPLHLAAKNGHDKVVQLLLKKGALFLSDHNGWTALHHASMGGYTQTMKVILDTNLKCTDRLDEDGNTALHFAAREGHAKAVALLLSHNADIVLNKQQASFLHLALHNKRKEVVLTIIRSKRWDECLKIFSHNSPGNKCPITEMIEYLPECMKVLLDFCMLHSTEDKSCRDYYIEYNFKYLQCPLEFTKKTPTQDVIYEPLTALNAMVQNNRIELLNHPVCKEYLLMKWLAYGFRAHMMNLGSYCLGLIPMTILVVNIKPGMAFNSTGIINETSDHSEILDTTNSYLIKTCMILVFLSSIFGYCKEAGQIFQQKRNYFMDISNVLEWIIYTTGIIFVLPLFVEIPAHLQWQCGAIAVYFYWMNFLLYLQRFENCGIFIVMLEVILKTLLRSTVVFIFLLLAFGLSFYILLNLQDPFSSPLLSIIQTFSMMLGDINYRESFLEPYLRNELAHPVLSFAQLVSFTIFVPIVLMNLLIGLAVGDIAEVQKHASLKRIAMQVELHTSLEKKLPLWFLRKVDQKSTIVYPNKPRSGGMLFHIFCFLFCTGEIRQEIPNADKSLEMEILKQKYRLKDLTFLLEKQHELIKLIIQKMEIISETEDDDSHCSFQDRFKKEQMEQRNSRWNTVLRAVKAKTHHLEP

As to `C=C(C)[C@@H]1CCC(C)=C[C@H]1c1c(O)cc(CCCCC)cc1O` [cannabidiol, reference compound], at TRPV2 [1], the “nHill (cannabidiol), TRPV2” value is 0.6. Also, the EC50 at TRPV2 [1] (read-out: EC50 (cannabidiol), TRPV2) is 3.8 µM.

`Cl.Cl.Cl.Cl.Cl.Cl.N.N.N.N.N.N.N.N.N.N.N.N.N.N.[O-2].[O-2].[Ru+3].[Ru+3].[Ru+4]` [ruthenium red, reference compound]: the IC50 at TRPA1 was determined as 2.3 µM. As to `COc1ccc(/C=C/C(=O)Nc2ccccc2C(=O)O)cc1OC` [tranilast, reference compound], the IC50 on TRPV2 [2] was 2.3 ± 0.25 µM. Molecule `COc1ccc(CCCOC(Cn2ccnc2)c2ccc(OC)cc2)cc1` (centres unmarked) [SKF 96365, reference compound] gave an IC50 against TRPC7 of 103 µM.
